Measurements as given in US9060968B2, “Treatment of degenerative joint disease” (AMPIO PHARMACEUTICALS, INC., priority 2011, dated 2015).

Test system: oxidized collagen IV
Assay: Binding to H2O2 treated collagen IV (decrease in <5 kDa filtrate by LCMS)
Parameters: species or system human
Conditions: for Binding to collagen, result in words: oxidized forms of collagen
Protocol: Collagen source: 1 mg/ml Collagen IV form human placenta in 0.25% acetic acid (Sigma™). The collagen was oxidixed with 500 μM H2O2 in 1×PBS for 1 hour at 37° C. The oxidized collagen IV (final=0.2 mg/ml) was then incubated with 2 μM DA-DKP or 2 μM NAT in PBS for 1 hour at 37° C. At the end of the incubation, the <5 kDa fraction was isolated by a VIVASPIN® 2 microcentrifugal filter having a molecular weight cutoff of 5,000. The <5 kDa fraction was analyzed for DA-DKP and/or NAT content using a liquid chromatograph-mass spectrometery (LCMS) method for DA-DKP analysis.

| Average % decrease (2 μM, oxidized collagen IV 0.2 mg/ml, 1 hour at 37° C., alone) | Binding to collagen, result in words | SMILES |
| --- | --- | --- |
| 26.0% | bind to oxidized forms of collagen | C[C@@H]1NC(=O)[C@H](CC(=O)O)NC1=O [DA-DKP, aspartyl-alanyl diketopiperazine] |
|  | bind to oxidized forms of collagen | CC(=O)N[C@@H](Cc1c[nH]c2ccccc12)C(=O)O [NAT, N-acetyl-tryptophan] |
